# Tests used:
# [1] = biological target: T1, human TRPV1 (Homo sapiens (Human), UniProt Q8NER1); assay: pH-based assay, Protocol 2, TRPV1/CHO cells (hpH-CHO), Fura-2 Ca2+ influx; assay type: cell-based; details: pH 5.0-5.1 (H2SO4), mean ± SEM
# [2] = biological target: T1, human TRPV1; assay: Human TRPV1 heat-based assay, hTRPV1/CHO cells (hHeat-CHO); assay type: cell-based; details: temperature ramp 25 to 45 °C, mean ± SEM
# Experimental: Human TRPV1 Heat-based Assay:
# CHO cells stably expressing human TRPV1 (hTRPV1) were used. Functional assessment of heat-induced activation of hTRPV1 was carried out in a cell-based Ca^2+ flux assay using ABI7500 Fast Real-Time PCR System as described in Reubish et al., “Functional assessment of temperature-gated ion-channel activity using a real-time PCR machine,” www.BioTechniques.com 47(3):iii-ix (2009), which is hereby incorporated by reference. Briefly, hTRPV1/CHO cells were cultured in growth media in a tissue culture dish at 37° C. in a CO2 incubator. On the day of the assay, culture media were removed and the cells were then detached using 0.05% trypsin at 37° C. with 5% CO2, for 90 s. The detached cells were centrifuged (1000 rpm, 4 min) to remove trypsin-containing supernatant and resuspended in assay buffer (115 mM NaCl, 5.4 mM KCl, 0.8 mM MgCl2.6H2O, 1.8 mM CaCl2.2H2O, 13.8 mM D-glucose, and 20 mM HEPES). Then, the cells were loaded with 5 μM Fluo-4, a Ca^2+ reporter dye, in the presence of 2.5 mM probenecid at 37° C. with 5% CO2, for 45 min. Thereafter, the cells were washed twice with measuring buffer (assay buffer supplemented with 0.1% BSA and 3.2 mM CaCl2) then transferred to a Fast 96-well Reaction Plate (0.1 mL) (Part no. 4346907, MICROAMP, Applied Biosystems, Foster City, Calif.). The cell density was 100,000 cells/24 μL/well. A solution of the compound under test (6 μL/well) was added into each well of the 96-well plate. Thus, the reaction volume per well was 30 μL.
# The plates were then placed inside an ABI7500 Fast Real-Time PCR instrument (Applied Biosystems) to read fluorescence at different temperatures using 7500 software, version 2.0.2 (Applied Biosystems). The initial temperature was set at 25° C. for 1 min. followed by a temperature ramp to 45° C. in 100 s to deliver heat to cells. [Ca^2+], response of hTRPV1/CHO cells to heat was determined as: [fluorescence read at 45° C.−fluorescence read at 25° C.].
# Compound concentration response curves and IC50 values were analyzed using GraphPad Prism 4 software (GraphPad Software, La Jolla, Calif.).
# The IC50 data provided in Table 6 are shown as mean±standard error of the mean; the number of trials conducted for each assay is shown in parentheses except for only a single trial where no number of trials is shown in parentheses.
# T1 sequence (Q8NER1 whole entry, looked up): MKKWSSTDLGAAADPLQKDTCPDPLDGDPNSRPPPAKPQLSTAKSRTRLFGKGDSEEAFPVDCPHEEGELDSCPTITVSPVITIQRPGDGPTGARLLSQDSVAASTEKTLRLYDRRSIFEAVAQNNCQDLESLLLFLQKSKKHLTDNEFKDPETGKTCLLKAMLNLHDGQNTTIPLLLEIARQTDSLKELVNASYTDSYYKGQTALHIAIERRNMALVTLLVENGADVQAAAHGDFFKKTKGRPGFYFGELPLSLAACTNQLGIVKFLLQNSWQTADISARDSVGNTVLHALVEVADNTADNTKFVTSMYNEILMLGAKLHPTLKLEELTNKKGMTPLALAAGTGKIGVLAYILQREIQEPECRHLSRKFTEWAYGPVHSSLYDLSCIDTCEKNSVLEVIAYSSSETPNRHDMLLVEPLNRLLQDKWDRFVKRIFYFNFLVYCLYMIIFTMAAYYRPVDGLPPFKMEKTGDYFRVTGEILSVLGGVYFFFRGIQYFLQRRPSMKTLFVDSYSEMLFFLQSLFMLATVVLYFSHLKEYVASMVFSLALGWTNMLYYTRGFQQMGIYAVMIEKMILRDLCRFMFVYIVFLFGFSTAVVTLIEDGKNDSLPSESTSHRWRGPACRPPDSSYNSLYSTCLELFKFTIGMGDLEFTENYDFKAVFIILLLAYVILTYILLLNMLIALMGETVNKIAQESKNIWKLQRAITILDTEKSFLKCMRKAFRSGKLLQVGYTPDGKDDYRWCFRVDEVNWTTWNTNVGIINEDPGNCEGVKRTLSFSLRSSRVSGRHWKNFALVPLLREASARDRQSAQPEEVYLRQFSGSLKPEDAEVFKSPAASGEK
IC50 [1] [nM],IC50 [2] [nM],SMILES
12.2 ± 5.9,,"Cc1ccc2nc(NC(=O)N3CCN(c4ncc([C@H](O)CO)cc4F)C[C@@H]3C)sc2c1 [A126(a), (S)-4-(5-((S)-1,2-dihydroxyethyl)-3-fluoropyridin-2-yl)-2-methyl-N-(6-methylbenzo[d]thiazol-2-yl)piperazine-1-carboxamide]"
40.8 ± 3.2,101.5 ± 0.8,"C[C@@H]1CN(C(=O)Nc2nc3cc(F)c(F)cc3s2)CCN1c1ncc([C@H](O)CO)cc1F [AE, (R)—N-(5,6-difluorobenzo[d]thiazol-2-yl)-4-{5-[(S)-1,2-dihydroxyethyl]-3-fluoropyridin-2-yl}-3-methylpiperazine-1-carboxamide]"
98 ± 27,,"C[C@H]1CN(c2ncc([C@H](O)CO)cc2F)CCN1C(=O)Nc1nc2ccccc2s1 [A122(a), (S)—N-(benzo[d]thiazol-2-yl)-4-(5-((S)-1,2-dihydroxyethyl)-3-fluoropyridin-2-yl)-2-methylpiperazine-1-carboxamide]"
67 ± 12,155 ± 25,"Cc1ccc2nc(NC(=O)N3CCN(c4ncc([C@H](O)[C@H](C)O)cc4F)CC3)sc2c1 [C126(r), 4-[5-((1S,2S)-1,2-Dihydroxy-propyl)-3-fluoro-pyridin-2-yl]piperazine-1-carboxylic acid (6-methyl-benzothiazol-2-yl)-amide]"
69 ± 3,335 ± 40,"C[C@H](O)[C@@H](O)c1cnc(N2CCN(C(=O)Nc3nc4ccc(F)cc4s3)CC2)c(F)c1 [C125(r), 4-(5-((1S,2S)-1,2-dihydroxypropyl)-3-fluoropyridin-2-yl)-N-(6-fluorobenzo[d]thiazol-2-yl)piperazine-1-carboxamide]"
17.1,,"C[C@H]1CN(c2ncc([C@H](O)CO)cc2F)CCN1C(=O)Nc1nc2cc(F)c(F)cc2s1 [A158(a), (S)—N-(5,6-difluorobenzo[d]thiazol-2-yl)-4-(5-((S)-1,2-dihydroxyethyl)-3-fluoropyridin-2-yl)-2-methylpiperazine-1-carboxamide]"
81 ± 13,389 ± 83,"C[C@@H]1CN(C(=O)Nc2nc3ccc(F)cc3s2)CCN1c1ncc([C@H](O)CO)cc1F [A125(b), (R)-4-{5-[(S)-1,2-dihydroxyethyl]-3-fluoropyridin-2-yl}-N-(6-fluorobenzo[d]thiazol-2-yl)-3-methylpiperazine-1-carboxamide]"
32.8 ± 8.1,170 ± 20,"Cc1cc2nc(NC(=O)N3CCN(c4ncc([C@H](O)[C@H](C)O)cc4F)CC3)sc2cc1C [C170(r), 4-(5-((1S,2S)-1,2-dihydroxypropyl)-3-fluoropyridin-2-yl)-N-(5,6-dimethylbenzo[d]thiazol-2-yl)piperazine-1-carboxamide]"
136 ± 20,,"C[C@H](O)[C@@H](O)c1cnc(N2CCN(C(=O)Nc3nc4cc(F)c(F)cc4s3)C[C@H]2C)c(F)c1 [B158(j), (R)—N-(5,6-difluorobenzo[d]thiazol-2-yl)-4-{5-[(1S,2S)-1,2-dihydroxypropyl]-3-fluoropyridin-2-yl}-3-methylpiperazine-1-carboxamide]"
17.4 ± 1.2,87 ± 13,"C[C@H](O)[C@@H](O)c1cnc(N2CCN(C(=O)Nc3nc4ccc(F)cc4s3)CC2)c(Cl)c1 [C4(r), 4-{3-Chloro-5-[(1S,2S)-1,2-dihydroxypropyl]pyridin-2-yl}-N-(6-fluorobenzo[d]thiazol-2-yl)piperazine-1-carboxamide]"

# Reference: patent US9273043B2, “TRPV1 antagonists including dihydroxy substituent and uses thereof” (Purdue Pharma L.P., priority 2011, dated 2016)
